Measurements taken from patent publication US20190185518A9, “WARHEAD-CONTAINING PEPTIDOMIMETIC MACROCYCLES AS MODULATORS OF BFL-1” (AILERON Therapeutics, Inc., priority 2017, published 2019).
Where two headings read alike, the source gives them in different places. Positions of bridges follow the written chain, without caps; N, C: chain ends. Non-standard residues stand in square brackets, D forms with d. Residues, ends and D or L forms follow the SMILES beside them. ξ: configuration not given here. hPhe = N[C@@H](CCc1ccccc1)C(=O)O; R8 = C=CCCCCCC[C@@](C)(N)C(=O)O; ξαMeD = CC(N)(CC(=O)O)C(=O)O; S5 = C=CCCC[C@](C)(N)C(=O)O; Aib = CC(C)(N)C(=O)O

Legend:
Mcl-1, Bcl-xL, Bcl-2 = assay: BCL-2 family selectivity profile; type: binding
Description: The binding spectrum of stapled BIM BH3 peptides were tuned for BCL-2 family selectivity. […] ABT-199 is venetoclax, and † represents values reported in the literature.

Mcl-1 = Mcl-1 (Homo sapiens, UniProt Q07820); assay: Ki determination for Mcl-1 (BCL-2 family binding spectrum)
Mcl-1, sequence (Q07820 whole entry, species assumed): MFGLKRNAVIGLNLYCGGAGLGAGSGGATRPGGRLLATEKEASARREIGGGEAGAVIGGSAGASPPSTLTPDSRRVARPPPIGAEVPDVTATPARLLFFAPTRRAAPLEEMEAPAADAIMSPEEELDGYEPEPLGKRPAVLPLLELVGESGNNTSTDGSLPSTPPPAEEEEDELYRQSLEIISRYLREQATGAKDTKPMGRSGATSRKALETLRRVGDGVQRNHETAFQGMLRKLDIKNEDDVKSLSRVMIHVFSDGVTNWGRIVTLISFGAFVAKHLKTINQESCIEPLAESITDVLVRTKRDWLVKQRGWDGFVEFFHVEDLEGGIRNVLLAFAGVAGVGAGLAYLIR
In short: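 Binding to Mcl-1 was measured as displacement of a fluorescein-labelled macrocyclic peptidomimetic, read by fluorescence polarization. Constants were fitted by nonlinear regression.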

Bcl-xL = Bcl-xL (Homo sapiens, UniProt Q07817); assay: Ki determination for Bcl-xL (BCL-2 family binding spectrum)
Bcl-xL, sequence (Q07817 whole entry, species assumed): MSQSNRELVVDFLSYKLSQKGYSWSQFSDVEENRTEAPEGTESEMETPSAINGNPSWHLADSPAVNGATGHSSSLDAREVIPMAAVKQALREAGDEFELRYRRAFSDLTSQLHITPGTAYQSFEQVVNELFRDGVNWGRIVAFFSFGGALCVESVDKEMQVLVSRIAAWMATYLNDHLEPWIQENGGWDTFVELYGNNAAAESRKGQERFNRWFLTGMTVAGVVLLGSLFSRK
In short: (§1)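 Competitive fluorescence polarization: compounds (1 nM–1 mM) with 25 nM fluoresceinated peptidomimetic macrocycle and 50 nM protein in 140 mM NaCl, 50 mM Tris-HCl pH 7.4, 30 min at room temperature. Constants from nonlinear regression.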

Bcl-2 = Bcl-2 (Homo sapiens, UniProt P10415); assay: Ki determination for Bcl-2 (BCL-2 family binding spectrum); settings: read-out: Ki BCL-2
Bcl-2, sequence (P10415 whole entry, species assumed): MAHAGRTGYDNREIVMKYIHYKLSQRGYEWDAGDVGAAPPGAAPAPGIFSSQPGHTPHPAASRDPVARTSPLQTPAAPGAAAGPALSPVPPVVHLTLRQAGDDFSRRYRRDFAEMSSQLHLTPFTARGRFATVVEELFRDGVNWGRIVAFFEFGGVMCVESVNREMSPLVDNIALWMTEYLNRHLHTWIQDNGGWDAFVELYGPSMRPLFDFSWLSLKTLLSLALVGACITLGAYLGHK
In short: as §1

| SMILES | Ki (Bcl-2) | Ki (Bcl-xL; read-out: Ki BCL-XL) | Ki (Mcl-1; read-out: Ki MCL-1) | Profile (Mcl-1, Bcl-xL, Bcl-2; TABLE 6) | other results |
| --- | --- | --- | --- | --- | --- |
| CN(C)CC[C@H](CSc1ccccc1)Nc1ccc(S(=O)(=O)NC(=O)c2ccc(N3CCN(Cc4ccccc4-c4ccc(Cl)cc4)CC3)cc2)cc1[N+](=O)[O-] [ABT-737, reference compound] | – | – | – | – | Profile (Mcl-1, Bcl-xL, Bcl-2; TABLE 8): Bcl-xL/Bcl-2 selective |
| CC[C@H](C)[C@H](NC(C)=O)C(=O)N[C@@H](Cc1c[nH]c2ccccc12)C(=O)N[C@H](C(=O)N[C@@H](C)C(=O)N[C@@H](CCC(N)=O)C(=O)N[C@@H](C)C(=O)N[C@@H](CC(C)C)C(=O)N[C@@H](CCCNC(=N)N)C(=O)N[C@]1(C)CCCCCCC=CCCC[C@@](C)(C(=O)N[C@@H](Cc2ccc(O)cc2)C(=O)N[C@@H](Cc2ccc(O)cc2)C(=O)N[C@@H](C)C(=O)N[C@@H](CCCNC(=N)N)C(=O)N[C@@H](CCCNC(=N)N)C(N)=O)NC(=O)[C@H](CC(N)=O)NC(=O)[C@H](Cc2ccccc2)NC(=O)[C@H](CCC(=O)O)NC(=O)[C@H](CC(=O)O)NC(=O)CNC(=O)[C@H]([C@@H](C)CC)NC1=O)[C@@H](C)CC [Peptide #15] (Ac-IWIAQALR[R8]IGDEFN[S5]YYARR-NH2; staple 9-16) | – | – | – | – | Profile (Mcl-1, Bcl-xL, Bcl-2; TABLE 8): Pan-selective; Ki (Mcl-1; TABLE 8, read-out: Mcl-1 Ki): 10.6 nM |
| CC[C@H](C)[C@H](NC(C)=O)C(=O)N[C@@H](Cc1c[nH]c2ccccc12)C(=O)N[C@H](C(=O)N[C@@H](C)C(=O)N[C@@H](CCC(N)=O)C(=O)N[C@@H](C)C(=O)N[C@@H](CC(C)C)C(=O)N[C@@H](CCCNC(=N)N)C(=O)N[C@]1(C)CCCCCCC=CCCC[C@@](C)(C(=O)N[C@@H](Cc2ccc(O)cc2)C(=O)N[C@@H](Cc2ccc(O)cc2)C(=O)N[C@@H](C)C(N)=O)NC(=O)[C@H](CC(N)=O)NC(=O)[C@H](C)NC(=O)[C@H](CCC(N)=O)NC(=O)[C@H](CC(=O)O)NC(=O)CNC(=O)[C@H]([C@@H](C)CC)NC1=O)[C@@H](C)CC [compound 8] (Ac-IWIAQALR[R8]IGDQAN[S5]YYA-NH2; staple 9-16) | – | – | – | Mcl-1 selective | Ki (Mcl-1; TABLE 6, read-out: Mcl-1 Ki): 1.4 nM |
| CC[C@H](C)[C@H](NC(C)=O)C(=O)N[C@@H](Cc1c[nH]c2ccccc12)C(=O)N[C@H](C(=O)N[C@@H](C)C(=O)N[C@@H](CCC(N)=O)C(=O)N[C@@H](C)C(=O)N[C@@H](CC(C)C)C(=O)N[C@@H](C)C(=O)N[C@]1(C)CCCCCCC=CCCC[C@@](C)(C(=O)N[C@@H](Cc2ccc(O)cc2)C(=O)N[C@@H](Cc2ccc(O)cc2)C(=O)N[C@@H](C)C(N)=O)NC(=O)[C@H](CC(N)=O)NC(=O)[C@H](Cc2ccccc2)NC(=O)[C@H](C)NC(=O)[C@H](CC(=O)O)NC(=O)CNC(=O)[C@H]([C@@H](C)CC)NC1=O)[C@@H](C)CC [compound 11] (Ac-IWIAQALA[R8]IGDAFN[S5]YYA-NH2; staple 9-16) | – | – | – | negative control | Ki (Bcl-xL; TABLE 6, read-out: Bcl-xL Ki): 386 nM; Ki (Mcl-1; TABLE 6, read-out: Mcl-1 Ki): 73.8 nM |
| CC[C@H](C)[C@H](NC(C)=O)C(=O)N[C@@H](Cc1c[nH]c2ccccc12)C(=O)N[C@H](C(=O)N[C@@H](C)C(=O)N[C@@H](CCC(N)=O)C(=O)N[C@@H](C)C(=O)N[C@@H](CC(C)C)C(=O)N[C@@H](CCCNC(=N)N)C(=O)N[C@]1(C)CCCCCCC=CCCC[C@@](C)(C(=O)N[C@@H](Cc2ccc(O)cc2)C(=O)N[C@@H](Cc2ccc(O)cc2)C(=O)N[C@@H](C)C(N)=O)NC(=O)[C@H](CC(N)=O)NC(=O)[C@H](Cc2ccccc2)NC(=O)[C@H](C)NC(=O)[C@H](CC(N)=O)NC(=O)CNC(=O)[C@H]([C@@H](C)CC)NC1=O)[C@@H](C)CC [compound 12] (Ac-IWIAQALR[R8]IGNAFN[S5]YYA-NH2; staple 9-16) | – | – | – | negative control | – |
| CC[C@H](C)[C@H](NC(C)=O)C(=O)N[C@@H](Cc1c[nH]c2ccccc12)C(=O)N[C@H](C(=O)N[C@@H](C)C(=O)N[C@@H](CCC(N)=O)C(=O)N[C@@H](C)C(=O)N[C@@H](C)C(=O)N[C@@H](CCCNC(=N)N)C(=O)N[C@]1(C)CCCCCCC=CCCC[C@@](C)(C(=O)N[C@@H](Cc2ccc(O)cc2)C(=O)N[C@@H](Cc2ccc(O)cc2)C(=O)N[C@@H](C)C(N)=O)NC(=O)[C@H](CC(N)=O)NC(=O)[C@H](Cc2ccccc2)NC(=O)[C@H](C)NC(=O)[C@H](CC(=O)O)NC(=O)CNC(=O)[C@H]([C@@H](C)CC)NC1=O)[C@@H](C)CC [compound 13] (Ac-IWIAQAAR[R8]IGDAFN[S5]YYA-NH2; staple 9-16) | – | – | – | negative control | – |
| CC[C@H](C)[C@H](NC(C)=O)C(=O)N[C@@H](Cc1c[nH]c2ccccc12)C(=O)N[C@H](C(=O)N[C@@H](C)C(=O)N[C@@H](CCC(N)=O)C(=O)N[C@@H](C)C(=O)N[C@@H](CCc1ccccc1)C(=O)N[C@@H](CCCNC(=N)N)C(=O)N[C@]1(C)CCCCCCC=CCCC[C@@](C)(C(=O)N[C@@H](Cc2ccc(O)cc2)C(=O)N[C@@H](Cc2ccc(O)cc2)C(=O)N[C@@H](C)C(N)=O)NC(=O)[C@H](CC(N)=O)NC(=O)[C@H](Cc2ccccc2)NC(=O)[C@H](C)NC(=O)[C@H](CC(=O)O)NC(=O)CNC(=O)[C@H]([C@@H](C)CC)NC1=O)[C@@H](C)CC [compound 1692] (Ac-IWIAQA[hPhe]R[R8]IGDAFN[S5]YYA-NH2; staple 9-16) | > 1000 nM | > 1000 nM | 7.5 nM | – | – |

More lines, main results first:

| Ki (Bcl-2) | Ki (Bcl-xL; read-out: Ki BCL-XL) | Ki (Mcl-1; read-out: Ki MCL-1) | SMILES | Profile (Mcl-1, Bcl-xL, Bcl-2; TABLE 6) | other results |
| --- | --- | --- | --- | --- | --- |
| > 1000 nM | > 1000 nM | > 1000 nM | CC[C@H](C)[C@H](NC(C)=O)C(=O)N[C@@H](Cc1c[nH]c2ccccc12)C(=O)N[C@H](C(=O)NC(C)(C)C(=O)N[C@@H](CCC(N)=O)C(=O)N[C@@H](C)C(=O)N[C@@H](CC(C)C)C(=O)N[C@@H](CCCNC(=N)N)C(=O)N[C@]1(C)CCCCCCC=CCCC[C@@](C)(C(=O)N[C@@H](Cc2ccc(O)cc2)C(=O)N[C@@H](Cc2ccc(O)cc2)C(=O)N[C@@H](C)C(N)=O)NC(=O)[C@H](CC(N)=O)NC(=O)[C@H](Cc2ccccc2)NC(=O)[C@H](C)NC(=O)C(C)(CC(=O)O)NC(=O)CNC(=O)[C@H]([C@@H](C)CC)NC1=O)[C@@H](C)CC (stereo partly shown) [compound 1707] (Ac-IWI[Aib]QALR[R8]IG[ξαMeD]AFN[S5]YYA-NH2; staple 9-16) | – | – |
| 23.5 nM | 15.4 nM | 3.9 nM | CC[C@H](C)[C@H](NC(C)=O)C(=O)N[C@@H](Cc1c[nH]c2ccccc12)C(=O)N[C@H](C(=O)N[C@@H](C)C(=O)N[C@@H](CCC(N)=O)C(=O)N[C@@H](C)C(=O)N[C@@H](CC(C)C)C(=O)N[C@@H](CCCNC(=N)N)C(=O)N[C@]1(C)CCCCCCC=CCCC[C@@](C)(C(=O)N[C@@H](Cc2ccc(O)cc2)C(=O)N[C@@H](Cc2c[nH]c3ccccc23)C(=O)N[C@@H](C)C(N)=O)NC(=O)[C@H](CC(N)=O)NC(=O)[C@H](Cc2ccccc2)NC(=O)[C@H](C)NC(=O)[C@H](CC(=O)O)NC(=O)CNC(=O)[C@H]([C@@H](C)CC)NC1=O)[C@@H](C)CC [compound 1758] (Ac-IWIAQALR[R8]IGDAFN[S5]YWA-NH2; staple 9-16) | – | – |
| > 1000 nM | > 1000 nM | > 1000 nM | CC[C@H](C)[C@H](NC(C)=O)C(=O)N[C@@H](Cc1c[nH]c2ccccc12)C(=O)N[C@H](C(=O)N[C@@H](C)C(=O)N[C@@H](CCC(N)=O)C(=O)N[C@@H](C)C(=O)N[C@@H](CC(C)C)C(=O)N[C@@H](CCCNC(N)=O)C(=O)N[C@]1(C)CCCCCCC=CCCC[C@@](C)(C(=O)N[C@@H](Cc2ccc(O)cc2)C(=O)N[C@@H](Cc2ccc(O)cc2)C(=O)N[C@@H](C)C(N)=O)NC(=O)[C@H](CC(N)=O)NC(=O)[C@H](Cc2ccccc2)NC(=O)[C@H](C)NC(=O)[C@H](CC(N)=O)NC(=O)CNC(=O)[C@H]([C@@H](C)CC)NC1=O)[C@@H](C)CC [compound 1772] | – | – |
